Consider two molecules from patent US5767142A, “Trisbenzimidazoles useful as topoisomerase I inhibitors” (Rutgers, The State University of New Jersey, priority 1996, dated 1998).

Series [1] relates to human MDR1 (P-glycoprotein). Briefly: Substrate of human MDR1 (P-glycoprotein), from cytotoxicity in KB 3-1 and KB V-1 cells. The conditions noted are these: concluded from KB 3-1 / KB V-1 IC50 values. It counts as cell-based. Here is the method:
The drug sensitive human epidermoid carcinoma KB3-1 cell line (S. Aliyama et al., Somatic Cell Mol. Genet, 11, 117 (1985)) and its vinblastine-selected multidrug-resistant variant KBV-1 cells (D. W. Shen et al., Science, 32, 643 (1986)) were provided by Dr. Michael Gottesmann (National Cancer Institute, Bethesda, ML). These cells were grown as monolayer cultures at in 5% CO2 and maintained by regular passage in Dulbecco's minimal essential medium supplemented with 10% heat inactivated fetal bovine serum. KBV-1 cells were similarly maintained except they were grown in the presence of 1 μg/ml vinblastine.
The cytotoxic activity of Hoechst 33342 and 13 was also evaluated against KB 3-1 and KB V-1 cells. The primary difference between these cell lines is in the degree to which human MDR1 (P-glycoprotein) is expressed. […] Pharmacol., 245, 29B (1994).

The test system of series [2] is CPT-K5 cells (camptothecin-resistant variant of RPMI 8402). Briefly: MTT cytotoxicity assay, camptothecin-resistant CPT-K5. It counts as cell-based, human. The conditions noted are these: for Relative resistance (ratio of IC50 values of resistant versus drug sensitive cell line): CPT-K5 versus RPMI 8402, 5760 min; for IC50: Homo sapiens, CPT-K5, 96 h, read-out: Cytotoxicity IC50, CPT-K5. The procedure: (§1) The cytotoxicity was determined using the as MTT-microtiter plate tetrazolinium cytotoxicity assay (MTA) following the procedures of F. Denizot et al., J. Immunol. […] The cytotoxicity assay was performed using 96-well microtiter plates. Cells were grown in suspension at 37° C. in 5% CO2 and maintained by regular passage in RPMI medium supplemented with 10% heat inactivated fetal bovine serum, L-glutamine (2 mM), penicillin (100 U/ml), and streptomycin (0.1 mg/ml). For determination of IC50, cells were exposed continuously with varying concentrations of drug concentrations and MTT assays were performed at the end of the fourth day.

Series [3] concerns human ovarian tumor cell line, A2780. Briefly: Cytotoxicity, ovarian tumor cell line A2780. It counts as cell-based. The procedure: (§2) The cytotoxicity was determined using the as MTT-microtiter plate tetrazolinium cytotoxicity assay (MTA) following the procedures of F. Denizot et al., J. Immunol. Methods, 89, 271 (1986); J. Carmichael et al., Cancer Res., 47, 936 (1987) and T. J. Mosmann et al., Immunol. Methods, 65, 55 (1983). The human lymphoblast RPMI 8402 and its camptothecin-resistant variant cell line, CPT-K5 were provided by Dr. Toshiwo Andoh (Aichi Cancer Center Research Institute, Nagoya, Japan). See, for example, T. Andoh et al., Adv. Pharmacol., 29B, 93 (1994). The cytotoxicity assay was performed using 96-well microtiter plates. Cells were grown in suspension at 37° C. in 5% CO2 and maintained by regular passage in RPMI medium supplemented with 10% heat inactivated fetal bovine serum, L-glutamine (2 mM), penicillin (100 U/ml), and streptomycin (0.1 mg/ml). For determination of IC50, cells were exposed continuously with varying concentrations of drug concentrations and MTT assays were performed at the end of the fourth day.

The target in series [4] is T1, calf thymus topoisomerase I (Bos taurus, UniProt A0AAA9TV68).
T1 construct: plasmid YEpG DNA cleavage assay
T1 sequence (A0AAA9TV68 2-769): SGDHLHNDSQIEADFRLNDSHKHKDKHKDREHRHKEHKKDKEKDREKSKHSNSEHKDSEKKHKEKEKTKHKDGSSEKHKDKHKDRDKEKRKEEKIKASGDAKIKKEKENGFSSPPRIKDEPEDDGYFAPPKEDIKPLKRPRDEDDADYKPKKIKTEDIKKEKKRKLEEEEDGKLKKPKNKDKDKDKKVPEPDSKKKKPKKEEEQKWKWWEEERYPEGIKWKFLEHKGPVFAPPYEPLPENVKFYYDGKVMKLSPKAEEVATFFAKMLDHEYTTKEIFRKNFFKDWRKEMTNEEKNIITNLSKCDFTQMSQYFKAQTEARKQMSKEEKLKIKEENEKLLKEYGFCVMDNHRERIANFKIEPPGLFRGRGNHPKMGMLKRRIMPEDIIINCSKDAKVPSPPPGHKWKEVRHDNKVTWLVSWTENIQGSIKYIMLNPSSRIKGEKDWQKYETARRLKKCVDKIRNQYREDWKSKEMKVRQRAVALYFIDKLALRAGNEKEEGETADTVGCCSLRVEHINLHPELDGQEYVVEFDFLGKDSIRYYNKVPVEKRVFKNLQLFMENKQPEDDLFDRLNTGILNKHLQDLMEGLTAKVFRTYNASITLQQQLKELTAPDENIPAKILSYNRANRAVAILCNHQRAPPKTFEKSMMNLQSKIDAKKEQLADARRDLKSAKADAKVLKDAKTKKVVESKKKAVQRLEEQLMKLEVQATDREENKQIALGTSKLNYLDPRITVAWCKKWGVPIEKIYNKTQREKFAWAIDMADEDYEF
Briefly: Topoisomerase I-mediated DNA cleavage assay (calf thymus topoisomerase I, plasmid YEpG). It counts as biochemical. From the text:
DNA topoisomerase I was purified from calf thymus gland as reported previously by B. D. Halligan et al., J. Biol. Chem., 260, 2475 (1985). Plasmid YEpG was also purified by the alkali lysis method followed by phenol deproteination and CsCl/ethidium isopycnic centrifugation as described by T. Mariatis et al., Molecular Cloning, A Laboratory Manual, Cold Spring Harbor Labs, NY (1982) at pages 149-185. The end-labeling of the plasmid was accomplished as previously described by L. F. Liu et al., J. Biol. Chem., 258, 15365 (1983). The cleavage assays were performed as previously reported by A. Y. Chen et al., Cancer Res., 53, 1332 (1993). Human topoisomerase was isolated as a recombinant fusion protein using a T7 expression system.
^b Topoisomerase I cleavage values are reported as REC, Relative
Effective Concentration, i.e. concentrations relative to Hoechst 33342,
whose value is arbitrarily assumed as 1, that are able to produce the sam
cleavage on the plasmid DNA in the presence of calf thymus topoisomerase
I. Cleavage is calculated from the intensity of the strongest Hoechst

In series [5] the test system is KBV-1 cells (multidrug-resistant variant of KB3-1, overexpress MDR1). Briefly: MTT cytotoxicity assay, multidrug-resistant KBV-1. It counts as cell-based, human. The conditions noted are these: for IC50: Homo sapiens, KB-V1, 96 h, read-out: Cytotoxicity IC50, KBV-1. Here is the method:
as §1
(§3) These cells were grown as monolayer cultures at in 5% CO2 and maintained by regular passage in Dulbecco's minimal essential medium supplemented with 10% heat inactivated fetal bovine serum. KBV-1 cells were similarly maintained except they were grown in the presence of 1 μg/ml vinblastine.

The subject of series [6] is human lymphoblast RPMI 8402 cells. Briefly: MTT cytotoxicity assay, RPMI 8402. It counts as cell-based. The conditions noted are these: for IC50: Homo sapiens, RPMI 8402, 96 h, 4 days continuous drug exposure, read-out: Cytotoxicity IC50, RPMI. The procedure: as §1
For orientation: Formazan colour is commonly taken as a measure of viable cells.

Series [7] relates to CPT-2000, a variant of A2780. Briefly: Cytotoxicity, camptothecin-resistant CPT-2000. It counts as cell-based. The conditions noted are these: Homo sapiens. The procedure: as §2
Series [8] has as its system human epidermoid carcinoma KB3-1 cell line. Briefly: MTT cytotoxicity assay, KB3-1. It counts as cell-based. The conditions noted are these: KB 3-1, 96 h, 4 days continuous drug exposure. Here is the method: as §1, §3
Series [9] shares this test system. The conditions noted are these: previously reported; read-out: IC50 of Hoechst 33342 in KB 3-1 cells; cited from earlier work.
The test system of series [10] is topoisomerase I. The conditions noted are these: literature; cited from earlier work.
For series [11] the following is noted: cited from earlier work.
The subject of series [12] is KBV-1 cells (multidrug-resistant variant of KB3-1, overexpress MDR1). The conditions noted are these: cited from earlier work.
Where [13] appears, read: 4 days continuous drug exposure.

Converted amounts (≈) assume the structure as drawn. “Also recorded” adds a separate entry of the source. Like-named read-outs stand apart in the source and are kept apart here.

Broadly, the IC50 is the concentration at which inhibition is half-maximal. Turning to `c1ccc(-c2ccc3nc(-c4ccc5nc(-c6ccc7nc[nH]c7c6)[nH]c5c4)[nH]c3c2)cc1` [Compound 13, 5-Phenyl-2-[2'(benzimidazol-5"-yl)benzimidazol-5'-yl]benzimidazole], the “Substrate for human MDR1 (in words)” value in [1] was “appears not to be a substrate for human MDR1”. Also, in series [2], the “Cytotoxicity against CPT-K5 cells (in words)” value is “effective against camptothecin-resistant CPT-K5 cells”. Besides, in series [2], the “Relative resistance (ratio of IC50 values of resistant versus drug sensitive cell line)” value is recorded as “approximately 30 fold”. In addition, the concentration for half-maximal inhibition (IC50) came out at 580 nM in [2]; 0.015 µg/mL (≈ 0.0352 µM) in series [3]; 350 nM in series [5]; 90 nM in series [6]; 0.03 µg/mL (≈ 0.0703 µM) in [7]. The “Potency as topoisomerase I inhibitor (in words)” value in series [4] was “approximately one-half as potent as Hoechst 33342 as a topoisomerase I inhibitor”. Also, the “Difference of cytotoxicity between KB 3-1 and KB V-1 cells (in words)” value in [5] (KB 3-1 versus KB V-1) is “little difference between the IC50 values”. In series [6], the “Cytotoxicity towards RPMI 8402 (in words)” value was “significant cytotoxicity”.
As for `CCOc1ccc(-c2nc3cc(-c4nc5cc(N6CCN(C)CC6)ccc5[nH]4)ccc3[nH]2)cc1` [Hoechst 33342, 2'-(4-ethoxyphenyl)-5-(4-methyl-1-piperazinyl)-2,5'-bi-1H-benzimidazole, reference compound], the “Cytotoxicity against CPT-K5 cells (in words)” value in series [2] was “effective against camptothecin-resistant CPT-K5 cells”. For the same molecule, in series [2], the “Relative resistance (ratio of IC50 values of resistant versus drug sensitive cell line)” value is reported as “approximately 30 fold”. For the same molecule, the IC50 in series [2] (setting [13]) is 900 nM; in series [8], 10 nM; in [9] it was approximately 9 nM; in [5] (setting [13]), 1200 nM; in series [6], 30 nM. Moreover, the “Inhibition of topoisomerase I (in words)” value in series [10] was “is an inhibitor of topoisomerase I; also recorded: traps the reversible cleavable complex derived from DNA and topoisomerase I and produces a limited number of highly specific single-strand DNA breaks”. Moreover, the “Topo I-mediated DNA cleavage (REC, Relative Effective Concentration)” value in [4] is 1. Moreover, the “Protonation at physiological pH (in words)” value in series [11] is “extensively protonated at physiological pH”. Moreover, in series [12] (as reported by A. Y. Chen et al., Adv. Pharmacol., 245, 29B (1994)), the “Difference of IC50 between KB 3-1 and KB V-1 cells (in words)” value was “differs by approximately two-orders of magnitude”. In [12] (previously reported, KB V-1 overexpress MDR1), the “less cytotoxic to KB V-1 cells than to KB 3-1 cells” value is reported as “approximately 130 fold”. Further, the “Efficacy against tumor cell lines which overexpress MDR1 (in words)” value in series [12] (previously reported) was “not effective against tumor cell lines which overexpress MDR1”.
